Tests used:
[1] = The drug is tested on Z-007 corresponding to rat gut metagenome with ENA study accession number: PRJEB37062 and ENA sample accession number: ERS12561807 for biotransformation under anaerobic condition. The drug concentrations were measured over 9 timepoints collected between 0 and 24 hours of incubation by liquid-chromatography-coupled mass spectrometry (LC–MS); conditions: 2 µM
[2] = The drug is tested on WLS-006 corresponding to human gut metagenome with ENA study accession number: PRJEB37062 and ENA sample accession number: ERS12561741 for biotransformation under anaerobic condition. The drug concentrations were measured over 9 timepoints collected between 0 and 24 hours of incubation by liquid-chromatography-coupled mass spectrometry (LC–MS); conditions: 2 µM
[3] = The drug is tested on WLS-082 corresponding to human gut metagenome with ENA study accession number: PRJEB37062 and ENA sample accession number: ERS12561751 for biotransformation under anaerobic condition. The drug concentrations were measured over 9 timepoints collected between 0 and 24 hours of incubation by liquid-chromatography-coupled mass spectrometry (LC–MS); conditions: 2 µM
[4] = The drug is tested on WLS-170 corresponding to human gut metagenome with ENA study accession number: PRJEB37062 and ENA sample accession number: ERS12561762 for biotransformation under anaerobic condition. The drug concentrations were measured over 9 timepoints collected between 0 and 24 hours of incubation by liquid-chromatography-coupled mass spectrometry (LC–MS); conditions: 2 µM
[5] = The drug is tested on Z-018 corresponding to pig gut metagenome with ENA study accession number: PRJEB37062 and ENA sample accession number: ERS12561817 for biotransformation under anaerobic condition. The drug concentrations were measured over 9 timepoints collected between 0 and 24 hours of incubation by liquid-chromatography-coupled mass spectrometry (LC–MS); conditions: 2 µM
[6] = human gut metagenome, 24 h, 2 µM
[7] = human gut metagenome, 24 h, 2 µM; remark: listed apart in the source
[8] = The drug is tested on WLS-098 corresponding to human gut metagenome with ENA study accession number: PRJEB37062 and ENA sample accession number: ERS12561754 for biotransformation under anaerobic condition. The drug concentrations were measured over 9 timepoints collected between 0 and 24 hours of incubation by liquid-chromatography-coupled mass spectrometry (LC–MS); conditions: 2 µM
[9] = human gut metagenome, 24 h, 2 µM; remark: listed apart in the source
[10] = human gut metagenome, 24 h, 2 µM; remark: listed apart in the source
[11] = The drug is tested on Z-023 corresponding to metagenome with ENA study accession number: PRJEB37062 and ENA sample accession number: ERS12561822 for biotransformation under anaerobic condition. The drug concentrations were measured over 9 timepoints collected between 0 and 24 hours of incubation by liquid-chromatography-coupled mass spectrometry (LC–MS); conditions: 2 µM
[12] = human gut metagenome, 24 h, 2 µM; remark: listed apart in the source
[13] = The drug is tested on Z-002 corresponding to rabbit gut metagenome with ENA study accession number: PRJEB37062 and ENA sample accession number: ERS12561802 for biotransformation under anaerobic condition. The drug concentrations were measured over 9 timepoints collected between 0 and 24 hours of incubation by liquid-chromatography-coupled mass spectrometry (LC–MS); conditions: 2 µM
[14] = human gut metagenome, 24 h, 2 µM; remark: listed apart in the source
[15] = human gut metagenome, 24 h, 2 µM; remark: listed apart in the source
[16] = human gut metagenome, 24 h, 2 µM; remark: listed apart in the source
[17] = human gut metagenome, 24 h, 2 µM; remark: listed apart in the source
[18] = The drug is tested on WLS-052 corresponding to human gut metagenome with ENA study accession number: PRJEB37062 and ENA sample accession number: ERS12561747 for biotransformation under anaerobic condition. The drug concentrations were measured over 9 timepoints collected between 0 and 24 hours of incubation by liquid-chromatography-coupled mass spectrometry (LC–MS); conditions: 2 µM
[19] = The drug is tested on Z-020 corresponding to rabbit gut metagenome with ENA study accession number: PRJEB37062 and ENA sample accession number: ERS12561819 for biotransformation under anaerobic condition. The drug concentrations were measured over 9 timepoints collected between 0 and 24 hours of incubation by liquid-chromatography-coupled mass spectrometry (LC–MS); conditions: 2 µM
[20] = human gut metagenome, 24 h, 2 µM; remark: listed apart in the source
Note: call rule not given here.

| SMILES | Bacterial Biotransformation [1] | Bacterial Biotransformation [2] | Bacterial Biotransformation [3] | Bacterial Biotransformation [4] | Bacterial Biotransformation [5] | Bacterial Biotransformation [6] | Bacterial Biotransformation [7] | Bacterial Biotransformation [8] | Bacterial Biotransformation [9] | Bacterial Biotransformation [10] | Bacterial Biotransformation [11] | Bacterial Biotransformation [12] | Bacterial Biotransformation [13] | Bacterial Biotransformation [14] | Bacterial Biotransformation [15] | Bacterial Biotransformation [16] | Bacterial Biotransformation [17] | Bacterial Biotransformation [18] | Bacterial Biotransformation [19] | Bacterial Biotransformation [20] |
| --- | --- | --- | --- | --- | --- | --- | --- | --- | --- | --- | --- | --- | --- | --- | --- | --- | --- | --- | --- | --- |
| CCCCCOC(=O)Nc1nc(=O)n([C@@H]2O[C@H](C)[C@@H](O)[C@H]2O)cc1F [CAPECITABINE] | Compound NOT metabolized | Compound metabolized | Compound metabolized | Compound metabolized | Compound metabolized | Compound metabolized | Compound metabolized | Compound metabolized | Compound metabolized | Compound metabolized | Compound metabolized | Compound metabolized | Compound metabolized | Compound metabolized | Compound metabolized | Compound metabolized | Compound metabolized | Compound metabolized | Compound metabolized | Compound metabolized |
| Cc1ccc(-c2cc(C(F)(F)F)nn2-c2ccc(S(N)(=O)=O)cc2)cc1 [CELECOXIB] | Compound NOT metabolized | Compound metabolized | Compound metabolized | Compound NOT metabolized | Compound NOT metabolized | Compound NOT metabolized | Compound NOT metabolized | Compound NOT metabolized | Compound NOT metabolized | Compound metabolized | Compound NOT metabolized | Compound metabolized | Compound NOT metabolized | Compound metabolized | Compound NOT metabolized | Compound metabolized | Compound metabolized | Compound metabolized | Compound NOT metabolized | Compound NOT metabolized |
| CN1C(=O)CCS(=O)(=O)C1c1ccc(Cl)cc1 (stereo not given) [CHLORMEZANONE] | Compound NOT metabolized | Compound metabolized | Compound NOT metabolized | Compound metabolized | Compound NOT metabolized | Compound NOT metabolized | Compound NOT metabolized | Compound NOT metabolized | Compound NOT metabolized | Compound metabolized | Compound NOT metabolized | Compound NOT metabolized | Compound NOT metabolized | Compound NOT metabolized | Compound NOT metabolized | Compound NOT metabolized | Compound NOT metabolized | Compound NOT metabolized | Compound NOT metabolized | Compound NOT metabolized |
| Clc1ccc(Cn2c(CN3CCCC3)nc3ccccc32)cc1 [CLEMIZOLE] | Compound NOT metabolized | Compound metabolized | Compound metabolized | Compound metabolized | Compound metabolized | Compound metabolized | Compound NOT metabolized | Compound metabolized | Compound metabolized | Compound metabolized | Compound metabolized | Compound NOT metabolized | Compound metabolized | Compound NOT metabolized | Compound metabolized | Compound metabolized | Compound NOT metabolized | Compound metabolized | Compound NOT metabolized | Compound metabolized |
| CN1CCN(C2=Nc3cc(Cl)ccc3Nc3ccccc32)CC1 [CLOZAPINE] | Compound NOT metabolized | Compound NOT metabolized | Compound NOT metabolized | Compound metabolized | Compound NOT metabolized | Compound NOT metabolized | Compound metabolized | Compound metabolized | Compound NOT metabolized | Compound NOT metabolized | Compound metabolized | Compound metabolized | Compound metabolized | Compound NOT metabolized | Compound metabolized | Compound metabolized | Compound metabolized | Compound NOT metabolized | Compound NOT metabolized | Compound NOT metabolized |
| COc1cc2c(c(OC)c1OC)-c1ccc(OC)c(=O)cc1[C@@H](NC(C)=O)CC2 [COLCHICINE] | Compound NOT metabolized | Compound metabolized | Compound metabolized | Compound metabolized | Compound NOT metabolized | Compound metabolized | Compound metabolized | Compound NOT metabolized | Compound NOT metabolized | Compound metabolized | Compound metabolized | Compound metabolized | Compound metabolized | Compound metabolized | Compound metabolized | Compound NOT metabolized | Compound metabolized | Compound NOT metabolized | Compound NOT metabolized | Compound metabolized |

Source: ChEMBL document CHEMBL5724914, “Linking interpersonal differences in gut microbiota composition and drug biotransformation activity” (2024)
